{
  "source": "patent US8629173B2",
  "about": "“Solid forms comprising (+)-2-[1-(3-ethoxy-4-methoxyphenyl)-2-methylsulfonylethyl]-4-acetylaminoisoindoline-1,3-dione, compositions thereof, and uses thereof” (Celgene Corporation, priority 2002, dated 2014)",
  "key": {"human PDE2": {"target": "human PDE2 (Homo sapiens, UniProt O00408)", "sequence (O00408 whole entry)": "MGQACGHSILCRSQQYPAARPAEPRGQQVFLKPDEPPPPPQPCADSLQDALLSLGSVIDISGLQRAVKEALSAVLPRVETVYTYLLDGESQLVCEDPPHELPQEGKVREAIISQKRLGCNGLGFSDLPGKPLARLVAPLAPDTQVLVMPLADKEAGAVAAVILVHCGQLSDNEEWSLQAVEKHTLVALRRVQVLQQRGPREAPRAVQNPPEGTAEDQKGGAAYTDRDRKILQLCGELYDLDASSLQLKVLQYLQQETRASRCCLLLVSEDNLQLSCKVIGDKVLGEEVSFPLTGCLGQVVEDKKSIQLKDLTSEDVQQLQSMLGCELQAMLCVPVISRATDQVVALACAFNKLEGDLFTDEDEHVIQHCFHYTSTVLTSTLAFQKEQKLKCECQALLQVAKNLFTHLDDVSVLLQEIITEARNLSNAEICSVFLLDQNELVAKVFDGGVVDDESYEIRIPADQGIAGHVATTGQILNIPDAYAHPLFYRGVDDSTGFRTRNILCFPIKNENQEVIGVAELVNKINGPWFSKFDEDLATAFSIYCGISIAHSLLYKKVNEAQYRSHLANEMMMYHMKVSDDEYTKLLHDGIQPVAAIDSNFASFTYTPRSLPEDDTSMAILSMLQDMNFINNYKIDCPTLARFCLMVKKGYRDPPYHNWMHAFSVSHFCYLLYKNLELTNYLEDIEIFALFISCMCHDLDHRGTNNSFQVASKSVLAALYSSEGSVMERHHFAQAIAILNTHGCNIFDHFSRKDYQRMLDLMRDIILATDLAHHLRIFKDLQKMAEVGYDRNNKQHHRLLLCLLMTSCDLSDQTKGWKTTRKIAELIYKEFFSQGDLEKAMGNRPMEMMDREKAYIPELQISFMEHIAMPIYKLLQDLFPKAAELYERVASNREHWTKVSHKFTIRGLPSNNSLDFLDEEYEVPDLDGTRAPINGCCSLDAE", "test": "PDE2 enzyme assay", "assay_type": "biochemical"}, "[1]": {"target": "PDE5 from human platelets (Homo sapiens, UniProt O76074)", "test": "PDE5 enzyme assay", "assay_type": "biochemical"}, "[2]": {"target": "PDE3 from human platelets (Homo sapiens, UniProt Q14432)", "sequence (Q14432 whole entry)": "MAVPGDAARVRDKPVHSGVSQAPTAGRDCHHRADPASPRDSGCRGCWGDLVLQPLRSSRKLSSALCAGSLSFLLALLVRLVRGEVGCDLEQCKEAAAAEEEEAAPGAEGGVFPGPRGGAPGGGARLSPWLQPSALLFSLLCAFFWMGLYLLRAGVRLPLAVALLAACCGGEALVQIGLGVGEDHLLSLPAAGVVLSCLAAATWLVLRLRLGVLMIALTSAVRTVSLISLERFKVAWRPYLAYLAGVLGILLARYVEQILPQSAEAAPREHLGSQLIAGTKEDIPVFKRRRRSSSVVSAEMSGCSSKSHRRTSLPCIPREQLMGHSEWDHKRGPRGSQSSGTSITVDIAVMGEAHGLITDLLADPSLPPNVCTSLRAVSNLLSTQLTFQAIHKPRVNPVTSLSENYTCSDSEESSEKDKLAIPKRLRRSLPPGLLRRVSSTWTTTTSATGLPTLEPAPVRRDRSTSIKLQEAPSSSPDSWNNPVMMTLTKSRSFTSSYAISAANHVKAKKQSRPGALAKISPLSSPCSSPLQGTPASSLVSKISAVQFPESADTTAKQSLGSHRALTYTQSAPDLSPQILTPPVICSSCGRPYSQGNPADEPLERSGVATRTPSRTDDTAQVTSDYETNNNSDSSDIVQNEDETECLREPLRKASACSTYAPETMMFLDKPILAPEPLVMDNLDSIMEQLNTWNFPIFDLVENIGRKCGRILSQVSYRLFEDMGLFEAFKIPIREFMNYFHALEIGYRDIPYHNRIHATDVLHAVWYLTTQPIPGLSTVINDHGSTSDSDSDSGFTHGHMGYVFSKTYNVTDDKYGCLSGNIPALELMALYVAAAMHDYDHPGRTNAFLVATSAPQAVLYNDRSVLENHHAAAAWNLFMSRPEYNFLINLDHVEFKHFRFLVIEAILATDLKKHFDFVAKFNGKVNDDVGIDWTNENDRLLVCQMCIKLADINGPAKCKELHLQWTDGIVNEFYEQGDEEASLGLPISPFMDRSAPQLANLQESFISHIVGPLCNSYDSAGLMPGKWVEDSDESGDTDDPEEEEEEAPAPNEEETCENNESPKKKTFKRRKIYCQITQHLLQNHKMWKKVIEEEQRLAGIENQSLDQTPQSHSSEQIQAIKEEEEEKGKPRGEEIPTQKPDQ", "test": "PDE3 enzyme assay", "assay_type": "biochemical"}, "PDE4 (from U937 cells)": {"system": "PDE4 (from U937 cells)", "test": "PDE4 (U937 cell-derived) enzyme assay", "assay_type": "biochemical, human", "conditions": "1 μM cAMP"}, "[3]": {"target": "T1, PDE6 from bovine retinal rod outer segments (Bos taurus, UniProt P11541+P23439)", "T1 construct": "PDE6 from bovine retinal rod outer segments; from tissue; host or cells: bovine retinal rod outer segments", "T1 sequence (P11541 2-856 limits assumed)": "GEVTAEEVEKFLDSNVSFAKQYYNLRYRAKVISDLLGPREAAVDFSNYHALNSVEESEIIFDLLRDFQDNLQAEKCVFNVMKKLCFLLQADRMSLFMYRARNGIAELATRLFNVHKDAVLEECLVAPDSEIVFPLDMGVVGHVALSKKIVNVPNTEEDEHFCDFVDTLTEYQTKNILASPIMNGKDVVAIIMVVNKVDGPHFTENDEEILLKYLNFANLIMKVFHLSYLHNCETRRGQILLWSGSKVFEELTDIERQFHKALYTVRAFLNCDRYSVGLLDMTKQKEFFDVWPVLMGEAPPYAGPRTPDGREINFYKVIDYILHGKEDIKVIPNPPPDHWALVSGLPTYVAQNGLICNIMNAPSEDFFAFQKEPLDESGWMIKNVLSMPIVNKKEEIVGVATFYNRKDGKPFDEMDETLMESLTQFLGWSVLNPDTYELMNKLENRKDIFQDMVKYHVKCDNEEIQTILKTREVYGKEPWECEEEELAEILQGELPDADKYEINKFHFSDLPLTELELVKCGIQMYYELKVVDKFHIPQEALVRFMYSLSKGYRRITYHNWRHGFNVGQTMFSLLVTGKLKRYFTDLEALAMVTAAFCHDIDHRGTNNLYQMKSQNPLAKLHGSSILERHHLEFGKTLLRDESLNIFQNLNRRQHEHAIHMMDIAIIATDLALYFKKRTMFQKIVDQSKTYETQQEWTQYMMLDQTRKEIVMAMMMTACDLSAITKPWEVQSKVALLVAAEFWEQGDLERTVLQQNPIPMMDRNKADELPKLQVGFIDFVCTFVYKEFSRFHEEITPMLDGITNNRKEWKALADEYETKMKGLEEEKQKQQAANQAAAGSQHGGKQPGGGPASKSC", "T1 sequence (P23439 2-850 limits assumed)": "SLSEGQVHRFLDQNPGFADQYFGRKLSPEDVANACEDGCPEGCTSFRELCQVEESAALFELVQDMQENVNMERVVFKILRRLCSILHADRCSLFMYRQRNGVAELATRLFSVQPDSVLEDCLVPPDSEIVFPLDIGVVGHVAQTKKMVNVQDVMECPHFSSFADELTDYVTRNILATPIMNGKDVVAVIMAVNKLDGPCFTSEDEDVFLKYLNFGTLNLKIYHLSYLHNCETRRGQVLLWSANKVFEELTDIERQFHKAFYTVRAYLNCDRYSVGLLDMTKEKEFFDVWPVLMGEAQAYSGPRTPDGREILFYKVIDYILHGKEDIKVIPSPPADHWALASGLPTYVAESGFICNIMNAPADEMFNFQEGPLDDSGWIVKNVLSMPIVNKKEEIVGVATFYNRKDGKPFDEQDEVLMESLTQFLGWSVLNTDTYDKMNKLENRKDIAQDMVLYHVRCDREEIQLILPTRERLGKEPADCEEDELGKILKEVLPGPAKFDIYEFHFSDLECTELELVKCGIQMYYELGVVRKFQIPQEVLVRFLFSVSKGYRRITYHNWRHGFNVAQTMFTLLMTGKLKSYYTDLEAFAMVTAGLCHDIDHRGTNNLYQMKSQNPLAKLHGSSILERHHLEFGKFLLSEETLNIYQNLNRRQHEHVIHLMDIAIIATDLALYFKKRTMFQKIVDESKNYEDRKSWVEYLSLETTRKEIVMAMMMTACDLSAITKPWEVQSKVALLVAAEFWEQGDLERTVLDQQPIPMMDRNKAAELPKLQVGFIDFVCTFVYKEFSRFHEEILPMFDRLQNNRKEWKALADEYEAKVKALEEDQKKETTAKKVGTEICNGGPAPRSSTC", "test": "PDE6 enzyme assay", "assay_type": "biochemical"}, "bovine PDE1": {"system": "bovine PDE1", "test": "PDE1 enzyme assay", "assay_type": "biochemical"}},
  "data": [
    {"smiles": "CCOc1cc([C@H](CS(C)(=O)=O)N2C(=O)c3cccc(NC(C)=O)c3C2=O)ccc1OC", "note": "[Compound B]", "values": [
      {"measurement": "PDE2 (% inhib at 10 μM)", "setting": "human PDE2; 10 μM", "value": 10, "unit": "%"},
      {"measurement": "PDE Specificity Ratio PDE4/PDE2", "setting": "human PDE2; from Table 1 data", "value": ">260", "unit": "fold"},
      {"measurement": "PDE5 (% inhib at 10 μM)", "setting": "[1]; 10 μM", "value": "−9", "unit": "%"},
      {"measurement": "PDE Specificity Ratio PDE4/PDE5", "setting": "[1]; from Table 1 data", "value": ">39000", "unit": "fold"},
      {"measurement": "PDE3 (% inhib at 10 μM)", "setting": "[2]; 10 μM", "value": 31, "unit": "%"},
      {"measurement": "PDE Specificity Ratio PDE4/PDE3", "setting": "[2]; from Table 1 data", "value": ">45", "unit": "fold"},
      {"measurement": "IC50", "setting": "PDE4 (from U937 cells)", "value": 611, "unit": "nM"},
      {"measurement": "PDE6 (% inhib at 10 μM)", "setting": "[3]; 10 μM", "value": 10, "unit": "%"},
      {"measurement": "PDE Specificity Ratio PDE4/PDE6", "setting": "[3]; from Table 1 data", "value": ">250", "unit": "fold"},
      {"measurement": "PDE1 (% inhib at 10 μM)", "setting": "bovine PDE1; 10 μM", "value": 27, "unit": "%"},
      {"measurement": "PDE Specificity Ratio PDE4/PDE1", "setting": "bovine PDE1; from Table 1 data", "value": ">50", "unit": "fold"}
    ]}
  ]
}
